Source: US10556898B2, “Indazolyl-1,2,4-thiadiazolamines and related compounds for inhibition of Rho-associated protein kinase and the treatment of disease” (Lycera Corporation, priority 2016, dated 2020)
Where two headings read alike, the source gives them in different places.

What was measured:
[1] = molecular target: T1, GST-tagged human ROCK1 catalytic domain 1-477 (Homo sapiens, UniProt Q13464); assay: Isolated Enzyme Assay, ROCK1 (LANCE Ultra ULight-CREBtide FRET); assay type: biochemical; conditions: isolated enzyme assay; 30 μM highest concentration tested; read-out: Results from Isolated Enzyme Assay IC50 (μM) ROCK1
T1 construct: human ROCK1 catalytic domain 1-477 from Carna Biosciences (cat #01-109); purchased Carna Biosciences 01-109; host or cells: baculovirus expression system
Method: (§1) Exemplary compounds were tested for ability to inhibit Rho-associated protein kinase isoform 1 (ROCK1) and Rho-associated protein kinase isoform 2 (ROCK2). Assay procedures and results are described below.
(§2) Part I—Procedure for Determining ROCK Inhibition Ability of Test Compounds Using an Isolated Enzyme Assay
(§3) Protein constructs were purified from a baculovirus expression system. The peptide substrate was fluorescent LANCE® Ultra ULight-CREBtide: […] (PerkinElmer, # TRF0107-D). Kinase reactions were carried out in a 10 μL volume in 384-well plates: 50 nM ULight-CREBtide substrate, 2 nM constitutively active ROCK1 or ROCK2 kinase, and test compound in DMSO (or DMSO only for controls) were diluted into assay buffer containing 50 mM Tris-HCl (pH=7.5), 10 mM MgCl2, 1 mM EGTA, 0.01% Tween-20, and 2 mM DTT such that the final concentration of DMSO was 0.5%. After a 90 minute incubation at room temperature on a shaker table, the kinase reaction was stopped by addition of 10 mM EDTA, and phosphorylation of the substrate was detected by adding 1 nM LANCE® Ultra Europium-anti-phospho-CREB (ser133) antibody (PerkinElmer, # TRF0200-D) and incubating for 60 minutes on a shaker at room temperature. The fluorescence resonance energy transfer (FRET) signals were read and analyzed on an Envision™ 2103 Multilabel Reader (Perkin Elmer). The concentration of test compound required to inhibit substrate phosphorylation by 50% (the IC50) was calculated by non-linear regression using GraphPad PRIZM.

[2] = molecular target: T2, GST-tagged human ROCK2 catalytic domain 1-553 (Homo sapiens, UniProt O75116); assay: Isolated Enzyme Assay, ROCK2 (LANCE Ultra ULight-CREBtide FRET); assay type: biochemical; conditions: isolated enzyme assay; 30 μM highest concentration tested; read-out: Results from Isolated Enzyme Assay IC50 (μM) ROCK2
T2 construct: GST-tagged human ROCK2 catalytic domain 1-553 from Carna Biosciences (Cat #01-110); purchased Carna Biosciences 01-110; host or cells: baculovirus expression system
Method: as §1, §2, §3

ROCK1 = molecular target: T3, ROCK1 (Homo sapiens, UniProt Q13464); assay: Cell-Based Assay, ROCK1 (HAP1 knockout cells, phospho-MYPT1 Thr853 ELISA); conditions: read-out: Results from Cell-Based Assay IC50 (μM) ROCK1
T3 construct: endogenous in cells; host or cells: HAP1 knockout cells
Method: (§4) Part II—Procedure for Determining ROCK Inhibition Ability of Test Compounds Using a Cell-Base Assay
(§5) The Cell-Based Assay for determining ROCK inhibition ability of test compounds utilized a genetically modified HAP1 cell line engineered to eliminate expression of either ROCK1 or ROCK2. In the procedure, HAP1 knockout cells are grown in Iscove's Modified Dulbecco's Medium that is additionally supplemented with 10% fetal bovine and 1x antibiotic-antimycotic mixture. Cells are plated in 96 well tissue culture plates at 1×10^5 cells/well (100 μL, of cells at 1×10^6/mL). Test compounds are solubilized in DMSO and diluted into the same media used to grow the cells. A 100 μL, aliquot of each compound dilution in media is added to each well containing the HAP1 cells and incubated at 37° C. for 30 minutes. Following compound incubation, the cells are pelleted by centrifugation at 1800 rpm for 5 minutes at 4° C. Media is removed from the cell pellet and the cells lysed and de-salted. An 80 μL, aliquot of each cell lysate is added to a single well of a 96-well high binding ELISA plate which has been pre-coated with a MYPT1 capture antibody and incubated at 4° C. overnight. The following day the ELISA plate is washed 4× with 0.05% Tween-20 in PBS. After washing, an anti-phospho-MYPT1 (Thr853) antibody is added and allowed to bind for 1 hour at room temperature. The wash step is repeated, and then an anti-rabbit HRP detection antibody is added and allowed to incubate at room temperature for 1 hour. The wash step is then repeated and 100 μL/well 1-Step™ Ultra TMB substrate is added to the ELISA plate and allowed to develop for approximately 5 minutes. The reaction is stopped by addition of H2SO4. Absorbance is read at 450 OD. Data is analyzed using GraphPad Prism software to calculate the 50% inhibitory concentration of test compound (IC50).

ROCK2 = molecular target: T4, ROCK2 (Homo sapiens, UniProt O75116); assay: Cell-Based Assay, ROCK2 (HAP1 knockout cells, phospho-MYPT1 Thr853 ELISA); conditions: read-out: Results from Cell-Based Assay IC50 (μM) ROCK2
T4 construct: endogenous in cells; host or cells: HAP1 knockout cells
Method: as §4, §5

T1 sequence (Q13464 1-477): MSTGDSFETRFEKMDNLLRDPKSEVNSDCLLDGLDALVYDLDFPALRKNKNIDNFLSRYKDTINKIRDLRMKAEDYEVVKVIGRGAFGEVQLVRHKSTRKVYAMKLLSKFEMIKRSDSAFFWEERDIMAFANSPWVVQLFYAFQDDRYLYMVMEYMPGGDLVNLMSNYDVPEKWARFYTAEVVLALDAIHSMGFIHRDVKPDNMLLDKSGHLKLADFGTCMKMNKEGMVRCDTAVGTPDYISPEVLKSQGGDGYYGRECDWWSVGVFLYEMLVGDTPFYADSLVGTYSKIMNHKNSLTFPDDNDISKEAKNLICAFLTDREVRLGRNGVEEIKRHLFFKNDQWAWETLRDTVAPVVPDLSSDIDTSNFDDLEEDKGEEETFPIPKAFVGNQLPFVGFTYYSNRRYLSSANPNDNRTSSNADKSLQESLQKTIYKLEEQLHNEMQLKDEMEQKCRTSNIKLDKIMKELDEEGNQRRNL
T4 sequence (O75116 whole entry): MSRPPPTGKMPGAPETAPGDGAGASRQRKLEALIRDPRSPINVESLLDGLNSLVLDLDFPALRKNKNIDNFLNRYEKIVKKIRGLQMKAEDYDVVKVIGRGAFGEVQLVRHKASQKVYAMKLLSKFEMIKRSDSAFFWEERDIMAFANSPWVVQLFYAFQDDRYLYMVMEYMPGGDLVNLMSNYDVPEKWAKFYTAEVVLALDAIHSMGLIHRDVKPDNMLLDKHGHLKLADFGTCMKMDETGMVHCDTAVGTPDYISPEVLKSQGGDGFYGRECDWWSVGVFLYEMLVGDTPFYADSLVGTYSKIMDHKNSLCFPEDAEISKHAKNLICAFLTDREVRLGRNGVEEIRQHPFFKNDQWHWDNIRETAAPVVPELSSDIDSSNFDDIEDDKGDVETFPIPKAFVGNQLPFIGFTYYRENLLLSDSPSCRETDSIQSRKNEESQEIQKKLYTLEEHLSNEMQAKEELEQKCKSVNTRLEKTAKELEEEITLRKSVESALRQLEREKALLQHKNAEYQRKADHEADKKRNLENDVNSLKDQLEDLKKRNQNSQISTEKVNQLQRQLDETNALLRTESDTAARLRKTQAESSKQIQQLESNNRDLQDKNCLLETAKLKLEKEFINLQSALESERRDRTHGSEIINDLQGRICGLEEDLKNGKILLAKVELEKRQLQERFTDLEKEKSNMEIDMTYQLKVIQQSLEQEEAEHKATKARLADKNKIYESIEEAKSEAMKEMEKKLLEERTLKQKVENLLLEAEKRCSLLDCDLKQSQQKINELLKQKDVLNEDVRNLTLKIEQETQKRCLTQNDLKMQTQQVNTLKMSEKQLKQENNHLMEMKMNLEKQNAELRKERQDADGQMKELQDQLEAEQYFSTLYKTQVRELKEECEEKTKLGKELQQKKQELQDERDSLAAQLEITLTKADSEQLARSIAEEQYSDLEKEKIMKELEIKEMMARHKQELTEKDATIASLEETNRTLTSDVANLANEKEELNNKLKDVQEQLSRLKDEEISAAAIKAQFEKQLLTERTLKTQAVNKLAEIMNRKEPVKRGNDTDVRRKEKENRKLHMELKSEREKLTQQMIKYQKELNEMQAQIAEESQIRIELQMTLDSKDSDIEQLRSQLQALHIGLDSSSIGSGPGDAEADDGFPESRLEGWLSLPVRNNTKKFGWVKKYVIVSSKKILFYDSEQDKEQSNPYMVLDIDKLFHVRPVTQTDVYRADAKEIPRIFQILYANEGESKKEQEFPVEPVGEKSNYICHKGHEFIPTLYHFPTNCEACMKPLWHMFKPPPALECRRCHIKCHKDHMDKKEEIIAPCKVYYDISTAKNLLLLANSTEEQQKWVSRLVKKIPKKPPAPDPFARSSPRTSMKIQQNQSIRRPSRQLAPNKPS
T2 sequence (O75116 1-553): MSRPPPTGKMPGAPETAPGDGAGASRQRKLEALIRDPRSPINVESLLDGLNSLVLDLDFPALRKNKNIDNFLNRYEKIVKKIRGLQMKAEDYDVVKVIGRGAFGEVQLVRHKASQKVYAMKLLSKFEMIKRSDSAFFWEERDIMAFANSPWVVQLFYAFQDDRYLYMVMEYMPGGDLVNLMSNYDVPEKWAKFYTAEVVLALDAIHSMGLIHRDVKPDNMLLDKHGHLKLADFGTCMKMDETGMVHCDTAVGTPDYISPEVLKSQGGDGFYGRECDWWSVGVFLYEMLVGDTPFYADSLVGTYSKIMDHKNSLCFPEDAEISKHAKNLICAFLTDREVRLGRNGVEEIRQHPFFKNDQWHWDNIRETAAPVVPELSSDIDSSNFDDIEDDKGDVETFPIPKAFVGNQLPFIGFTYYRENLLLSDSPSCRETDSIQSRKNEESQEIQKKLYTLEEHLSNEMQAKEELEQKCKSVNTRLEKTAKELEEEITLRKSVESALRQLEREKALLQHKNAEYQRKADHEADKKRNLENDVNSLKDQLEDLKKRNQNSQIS
T3 sequence (Q13464 whole entry): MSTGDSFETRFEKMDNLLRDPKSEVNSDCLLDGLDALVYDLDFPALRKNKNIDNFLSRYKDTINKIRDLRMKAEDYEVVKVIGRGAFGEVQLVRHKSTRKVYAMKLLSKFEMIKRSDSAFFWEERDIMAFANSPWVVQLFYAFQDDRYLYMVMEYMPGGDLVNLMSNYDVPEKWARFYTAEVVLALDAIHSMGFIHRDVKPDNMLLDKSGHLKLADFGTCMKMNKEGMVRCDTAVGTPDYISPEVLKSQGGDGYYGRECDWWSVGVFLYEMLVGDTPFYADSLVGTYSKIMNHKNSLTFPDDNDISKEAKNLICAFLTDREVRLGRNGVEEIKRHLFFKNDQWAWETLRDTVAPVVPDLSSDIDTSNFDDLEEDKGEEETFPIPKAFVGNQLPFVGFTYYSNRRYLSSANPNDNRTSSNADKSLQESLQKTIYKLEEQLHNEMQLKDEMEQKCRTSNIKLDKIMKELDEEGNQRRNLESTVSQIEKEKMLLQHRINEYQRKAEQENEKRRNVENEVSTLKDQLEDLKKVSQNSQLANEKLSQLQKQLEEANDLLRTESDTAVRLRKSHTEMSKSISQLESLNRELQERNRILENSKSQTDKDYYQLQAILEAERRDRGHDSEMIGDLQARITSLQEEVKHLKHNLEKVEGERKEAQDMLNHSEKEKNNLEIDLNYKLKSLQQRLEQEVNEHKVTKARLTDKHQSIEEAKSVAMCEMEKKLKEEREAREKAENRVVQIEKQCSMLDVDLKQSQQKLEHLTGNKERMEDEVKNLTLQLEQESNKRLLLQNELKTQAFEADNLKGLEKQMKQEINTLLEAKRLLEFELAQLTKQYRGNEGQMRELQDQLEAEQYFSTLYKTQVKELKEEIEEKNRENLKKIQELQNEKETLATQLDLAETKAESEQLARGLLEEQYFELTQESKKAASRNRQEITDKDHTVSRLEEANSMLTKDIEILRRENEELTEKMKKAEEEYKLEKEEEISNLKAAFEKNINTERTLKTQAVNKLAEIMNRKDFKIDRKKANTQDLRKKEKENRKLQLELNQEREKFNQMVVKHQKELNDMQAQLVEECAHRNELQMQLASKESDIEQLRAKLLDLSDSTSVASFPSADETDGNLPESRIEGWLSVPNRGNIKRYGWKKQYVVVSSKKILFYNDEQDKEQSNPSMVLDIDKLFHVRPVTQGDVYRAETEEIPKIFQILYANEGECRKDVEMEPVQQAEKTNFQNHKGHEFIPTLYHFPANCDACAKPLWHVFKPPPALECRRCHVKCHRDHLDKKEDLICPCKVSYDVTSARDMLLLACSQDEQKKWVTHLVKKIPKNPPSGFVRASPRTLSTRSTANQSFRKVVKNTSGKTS

SMILES	IC50 [1] [µM]	IC50 [2] [µM]	IC50 (ROCK1; numeric bound) [µM]	IC50 (ROCK2; class symbols) [µM]	IC50 (ROCK2; numeric bound) [µM]	IC50 (ROCK1; class symbols) [µM]
COc1ncc(C(=O)Nc2cc(-c3nsc(Nc4ccc5[nH]ncc5c4Cl)n3)cn(C)c2=O)cn1 [IV-7]	> 30	< 1	> 10	–	> 10	–
CC(C)NC(=O)COc1cccc(-c2nsc(Nc3ccc4[nH]ncc4c3Cl)n2)c1 [IV-9]	< 1	< 1	–	< 1	–	1 to 15
Cn1ccc(C(=O)Nc2cc(-c3nsc(Nc4ccc5[nH]ncc5c4Cl)n3)cn(C)c2=O)n1 [IV-10]	> 30	< 1	> 10	–	> 10	–
Cc1cnc(-c2cc(-c3nsc(Nc4ccc5[nH]ncc5c4Cl)n3)cn(C)c2=O)o1 [IV-12]	< 1	< 1	> 10	< 1	–	–
Cc1cc(NC(=O)c2ccnn2C)cc(-c2nsc(Nc3ccc4[nH]ncc4c3Cl)n2)n1 [IV-13]	< 1	< 1	> 10	–	> 10	–
Oc1ccn(-c2cccc(-c3nsc(Nc4ccc5[nH]ncc5c4Cl)n3)c2)n1 [IV-17]	< 1	< 1	> 10	1 to 15	–	–
CC(C)(O)CNC(=O)c1cc(-c2nsc(Nc3ccc4[nH]ncc4c3Cl)n2)ccc1F [IV-22]	< 1	< 1	–	< 1	–	1 to 15
C[C@@H]1CN(c2cccc(-c3nsc(Nc4ccc5[nH]ncc5c4Cl)n3)c2)C(=O)O1 [IV-31]	< 1	< 1	–	< 1	–	1 to 15
CC1(C)CN(c2cccc(-c3nsc(Nc4ccc5[nH]ncc5c4Br)n3)c2)C(=O)O1 [IV-35]	< 1	< 1	–	< 1	–	1 to 15
O=C(NC1CCOCC1)c1cc(-c2nsc(Nc3ccc4[nH]ncc4c3Cl)n2)ccc1F [IV-47]	< 1	< 1	–	< 1	–	1 to 15
CNC(=O)c1cc(-c2nsc(Nc3ccc4[nH]ncc4c3Cl)n2)ccc1F [IV-49]	< 1	< 1	> 10	< 1	–	–
Cn1cc(-c2nsc(Nc3ccc4[nH]ncc4c3Cl)n2)cc(NC(=O)c2ccccc2F)c1=O [IV-50]	> 30	< 1	> 10	< 1	–	–
O=C1OCCN1c1cccc(-c2nsc(Nc3ccc4[nH]ncc4c3Cl)n2)c1 [IV-55]	< 1	< 1	–	< 1	–	1 to 15
O=C(Nc1cccnc1)c1cccc(-c2nsc(Nc3ccc4[nH]ncc4c3Cl)n2)c1 [IV-65]	< 1	< 1	> 10	< 1	–	–
Cn1cc(C(=O)Nc2cccc(-c3nsc(Nc4ccc5[nH]ncc5c4Cl)n3)c2)c(C(F)(F)F)n1 [IV-72]	< 1	< 1	–	< 1	–	1 to 15

Other lines, results leading:

IC50 [1] [µM]	IC50 [2] [µM]	IC50 (ROCK1; numeric bound) [µM]	IC50 (ROCK2; class symbols) [µM]	IC50 (ROCK2; numeric bound) [µM]	IC50 (ROCK1; class symbols) [µM]	SMILES
< 1	< 1	> 10	< 1	–	–	Cn1nccc1C(=O)Nc1cc(-c2nsc(Nc3ccc4[nH]ncc4c3Cl)n2)cn(C)c1=O [IV-6]
> 30	< 1	> 10	–	> 10	–	COc1ncc(C(=O)Nc2cncc(-c3nsc(Nc4ccc5[nH]ncc5c4Cl)n3)c2)cn1 [IV-8]
< 1	< 1	–	< 1	–	1 to 15	CC(C)NC(=O)c1cc(-c2nsc(Nc3ccc4[nH]ncc4c3Cl)n2)ccc1F [IV-14]
< 1	< 1	> 10	< 1	–	–	Cc1coc(-c2cccc(-c3nsc(Nc4ccc5[nH]ncc5c4F)n3)c2)n1 [IV-15]
< 1	< 1	> 10	< 1	–	–	Cc1cc(NC(=O)c2cocn2)cc(-c2nsc(Nc3ccc4[nH]ncc4c3Cl)n2)n1 [IV-19]
< 1	< 1	> 10	< 1	–	–	Cc1cc(NC(=O)c2cn(C)cn2)cc(-c2nsc(Nc3ccc4[nH]ncc4c3Cl)n2)n1 [IV-26]
< 1	< 1	–	< 1	–	1 to 15	C[C@H]1CN(c2cccc(-c3nsc(Nc4ccc5[nH]ncc5c4Cl)n3)c2)C(=O)O1 [IV-32]
< 1	< 1	–	< 1	–	1 to 15	CC1COCCN1C(=O)Nc1cc(-c2nsc(Nc3ccc4[nH]ncc4c3Cl)n2)ccn1 (stereo not drawn) [IV-38]
> 30	> 30	> 10	< 1	–	–	Cc1cc(C(=O)Nc2cncc(-c3nsc(Nc4ccc5[nH]ncc5c4Cl)n3)c2)n(C)n1 [IV-42]
< 1	< 1	> 10	< 1	–	–	CN1CCC(NC(=O)c2cc(-c3nsc(Nc4ccc5[nH]ncc5c4Cl)n3)ccc2F)CC1 [IV-46]
< 1	< 1	–	< 1	–	1 to 15	O=C(NC1CCCC1)c1cc(-c2nsc(Nc3ccc4[nH]ncc4c3Cl)n2)ccc1F [IV-48]
< 1	< 1	–	< 1	–	1 to 15	CC1(C)CN(c2cccc(-c3nsc(Nc4ccc5[nH]ncc5c4Cl)n3)c2)C(=O)O1 [IV-54]
< 1	< 1	–	< 1	–	1 to 15	CC1(C)CCN(c2cccc(-c3nsc(Nc4ccc5[nH]ncc5c4Cl)n3)c2)C1=O [IV-56]
> 30	< 1	> 10	< 1	–	–	Cc1cc(C(=O)Nc2cc(-c3nsc(Nc4ccc5[nH]ncc5c4Cl)n3)ccn2)n(C)n1 [IV-58]
> 30	< 1	> 10	< 1	–	–	Cc1coc(-c2cc(-c3nsc(Nc4ccc5[nH]ncc5c4Cl)n3)ccn2)n1 [IV-59]
< 1	< 1	> 10	< 1	–	–	Cc1nc(C)c(C(=O)Nc2cccc(-c3nsc(Nc4ccc5[nH]ncc5c4Cl)n3)c2)o1 [IV-61]
< 1	< 1	> 10	< 1	–	–	Cn1nncc1C(=O)Nc1cccc(-c2nsc(Nc3ccc4[nH]ncc4c3Cl)n2)c1 [IV-62]
< 1	< 1	–	< 1	–	1 to 15	CC(C)c1cc(C(=O)Nc2cccc(-c3nsc(Nc4ccc5[nH]ncc5c4Cl)n3)c2)n(C)n1 [IV-63]
< 1	< 1	–	< 1	–	1 to 15	O=C(Nc1ccccn1)c1cccc(-c2nsc(Nc3ccc4[nH]ncc4c3Cl)n2)c1 [IV-66]
< 1	< 1	> 10	< 1	–	–	COc1ncc(C(=O)Nc2cccc(-c3nsc(Nc4ccc5[nH]ncc5c4Cl)n3)c2)cn1 [IV-70]
< 1	< 1	–	< 1	–	1 to 15	O=C(CC1CCCO1)Nc1cccc(-c2nsc(Nc3ccc4[nH]ncc4c3Cl)n2)c1 (stereo not drawn) [IV-71]
